Data taken from paper PMC11946258, “Self-Assembly, Antimicrobial Properties and Biodegradability of Ester-Functionalized Choline-Based Surface-Active Ionic Liquids” (Molecules, 2025).

Assays:
MRSA biofilm = MRSA biofilm formation inhibition (crystal violet); type: cell-based, methicillin-resistant Staphylococcus aureus; details: Staphylococcus aureus, at 128 µg/mL (highest concentration tested), 24 h, 37 °C, CV staining
Description: To assess the ability of ester-functionalized cholinium-based ILs to suppress MRSA biofilm formation, CnECholBr samples were introduced to newly prepared bacterial suspensions. These mixtures were then incubated for 24 h at 37 °C. Subsequently, crystal violet (CV) staining was employed to quantify the biofilm biomass. The findings from this experiment are illustrated in Figure 4.
(§1) Antibiofilm activity was assessed against biofilm-forming strains of methicillin-resistant Staphylococcus aureus (MRSA) ATCC 43300 and Candida albicans ATCC 90028. The biofilm inhibition and eradication capacities of ILs were evaluated against adherent bacterial biofilms grown in 96-well microtiter plates. Bacteria were grown on Tryptic soy agar at 37 °C for 24 h and the fungi on Sabouraud agar at 30 °C for 24 h. Bacteria were suspended in lysogeny broth containing glucose (1%) at 1.5 × 10^8 CFU/mL and yeasts were suspended in RPMI medium at 1.5 × 10^7 CFU/mL.
To assess the effect of ionic liquids on bacterial biofilm formation, we employed a microplate assay. We added 100 μL of IL at varying concentrations (2–128 μg/mL, using two-fold serial dilutions) to each well of a 96-well microplate, followed by 100 μL of diluted bacterial suspension. After incubating the plates at 37 °C for 24 h, we measured bacterial growth by recording the optical density at 600 nm (OD600). We then discarded the spent media, fixed the biofilm with methanol, and stained it with crystal violet. Following a water rinse, we dissolved the stained biofilm using an ethanol-acetic acid solution and measured the absorbance at 570 nm to quantify biofilm formation. To ensure reproducibility, we performed each assay in triplicate and averaged the results.

MRSA = experiment: MIC broth microdilution; type: cell-based, methicillin-resistant Staphylococcus aureus; details: Staphylococcus aureus, ATCC 43300 / MRSA; MRSA ATCC 43300, 24 h, 37 °C
Description: (§2) The antimicrobial activity of cholinium-based ILs with an ester group in the alkyl chain was evaluated against a range of representative bacteria and fungi.
Antibacterial assays were performed against the following microorganisms: Bacillus subtilis ATCC 6633, Staphylococcus epidermidis ATCC 12228, Staphylococcus aureus ATCC 29213, Micrococcus luteus ATCC10240, Listeria monocytogenes ATCC 15313, methicillin-resistant Staphylococcus aureus ATCC 43300, Escherichia coli ATCC 8739, Acinetobacter baumannii ATCC 19606, Klebsiella aerogenes ATCC 13048, Pseudomonas aeruginosa 9027, and Salmonella enterica ATCC14208. The antibacterial activity was assessed in vitro using the minimum inhibitory concentration (MIC) method. MIC is defined as the lowest concentration of an antimicrobial agent that prevents visible bacterial growth after 24 h of incubation at 37 °C. The ionic liquids were dissolved in Mueller–Hinton broth (MBH) at concentrations ranging from 1 to 256 μg/mL. The broth was added (200 μL) to appropriate wells of a 96-well polystyrene microtitre plate. Then, 10 μL of a nutrient broth starter culture of each bacterial strain was added to achieve final inocula of approximately […] colony forming units (CFU)/mL. A growth control using nutrient broth medium without the ionic liquid was included. The plates were incubated 37 °C for 24 h. Bacterial growth was initially observed visually, with increased turbidity indicating cell growth. […] A color change of resazurine from blue to pink indicated bacterial metabolic activity. All the experiments were performed in triplicate to ensure reproducibility.

Candida albicans = experiment: Antifungal MIC broth microdilution; type: cell-based; details: ATCC90028; Candida albicans ATCC 90028, RPMI 1640, 24 h, 30 °C
Description: as §2
(§3) The antifungal activity was evaluated against the following yeasts: Candida albicans ATCC 90028, Candida tropicalis ATCC 7349, Candida parapsilosis ATCC 22019, Candida glabrata ATCC 66032. Frozen yeast stocks were inoculated into Sabourauds’s agar (SBA) and culture plates and incubated at 35 °C for 24 h. Three to four colonies of each strain were dispersed in sterile medium, Roswell Park Memorial Institute medium (RPMI 1640 medium), to obtain dispersions with a turbidity equivalent to 0.5 on the MacFarland scale (McFarland DEN-1B Grant-bio model densitometer). Minimum fungicidal concentrations (MFC) values—the lowest concentration of an antimicrobial agent that prevents the establishment of visible microbial growth after 24 h at 30 °C—were used to determine in vitro antifungal activity. MFCs were determined using a broth microdilution assay. Serial dilutions of each IL, ranging from 512 to 2 µg/mL, were dissolved in RPMI 1640 medium and dispensed (100 µL) into the appropriate wells of a 96-well polystyrene microtiter plate. The nutrient broth starter culture of each yeast strain (100 μL) was added to achieve a final inoculum of approximately 7.5 × 10^5 CFU per mL for yeast. Nutrient broth medium without the compound was used as a growth control. The development of turbidity in an inoculated medium is a function of growth and reflects an increase in both mass and cell number. To confirm this observation, 20 μL of resazurin at 0.015% w/v was added to each well and allowed to react for approximately 2 h at 30 °C. After the incubation period, the indicator of microbial growth, i.e., a change from blue to pink, confirmed the MIC value.

Candida tropicalis = experiment: Antifungal MIC broth microdilution; type: cell-based; details: ATCC7349; Candida tropicalis ATCC 7349, RPMI 1640, 24 h, 30 °C
Description: as §2, §3

MRSA biofilms = experiment: MRSA mature biofilm eradication (crystal violet); type: cell-based, methicillin-resistant Staphylococcus aureus; details: CV staining, up to the highest tested concentration of 256 µg/mL
Description: The capacity of the ester-functionalised cholinium-based ILs to eradicate established MRSA biofilms was evaluated through the performance of eradication assays on microtiter plates. CV staining was applied to measure biofilm biomass.
as §1
To evaluate the effect of ionic liquids on mature biofilms, we employed a modified microtiter plate assay. We first generated mature biofilms by incubating 200 μL of diluted bacterial suspension in each well of a 96-well plate for 24 h at 37 °C. After gently washing the biofilms with PBS, we added 200 μL of ionic liquid solution at various concentrations (4–256 μg/mL, using two-fold serial dilutions) to each well and incubated for an additional 24 h at 37 °C. Following treatment, we fixed the biofilms with 150 μL methanol for 10 min. The subsequent crystal violet (CV) staining and quantification steps were performed as described in the previous biofilm formation assay (Section 3.6.1), allowing us to assess the impact of ionic liquids on established biofilms.

SMILES	inhibition at 128 µg/mL (MRSA biofilm)	MIC (MRSA)	MIC (Candida albicans)	MIC (Candida tropicalis)	biofilm biomass removal (MRSA biofilms)
CCCCCCCCCCCCOC(=O)C[N+](C)(C)CCO [C12ECholBr]	> 90%	64 µg/mL	64 µg/mL	> 256 µg/mL	≤ 60%
CCCCCCCCCCCCCCOC(=O)C[N+](C)(C)CCO.[Br-] [C14ECholBr, N-(2-hydroxyethyl)-N,N-dimethyl-2-oxo-2-(tetradecyloxy)ethan-1-aminium bromide]	≤ 50%	> 256 µg/mL	> 256 µg/mL	> 256 µg/mL	≤ 60%
CCCCCCCCCCOC(=O)C[N+](C)(C)CCO [C10ECholBr]	< 15%	> 256 µg/mL	> 256 µg/mL	> 256 µg/mL	less than 20%
